The text below walks through data of article PMC3764026, “Adaptive Evolution of Escherichia coli to an α-Peptide/β-Peptoid Peptidomimetic Induces Stable Resistance” (PLoS ONE, 2013).

≈ marks a conversion by molar mass, not a printed value. Where two headings read alike, the source gives them in different places.

In assay [1] the test system is Escherichia coli ATCC 25922. Format: cell-based. The following applies: wild-type E. coli ATCC 25922; MHB pH 7.4, 5×10^5 CFU/mL, 37°C, 18–20 h. On the procedure:
All experiments were performed with Escherichia coli ATCC 25922. Stock cultures of the wild-type strain and lineage isolates were stored at –80°C in 4% (w/v) glycerol, 0.5% (w/v) glucose, 2% (w/v) skimmed milk powder and 3% (w/v) tryptone soy powder. Lineage populations were frozen at –80°C in 50% (w/v) glycerol. All experiments were performed at 37°C. Experiments were carried out in cation-adjusted Mueller Hinton II broth (MHB) (Becton Dickinson 212322) adjusted to pH 7.4 or in 1% (w/v) peptone (Becton Dickinson 211677) for MIC determination of natural AMPs. Brain Heart Infusion (BHI) (CM1135) with agar (VWR 20768.292) 1.5% as gelling agent was used throughout for colony plating.
MIC was determined by using the micro-dilution method according to guidelines of the Clinical and Laboratory Standards Institute. Peptidomimetic 1 and erythromycin 1∶2 serial dilutions were prepared from 1024 µg/mL stock solutions to give a final range of 512-0.5 µg/mL in the wells. Ampicillin 1∶2 serial dilutions were prepared from a 256 µg/mL stock solution to give a final range of 128-0.13 µg/mL in the wells. Polymyxin B and gentamicin 1∶2 serial dilutions were prepared from a 64 µg/mL stock solution to give a final range of 32-0.03 µg/mL in the wells. Also, 1∶2 serial dilutions of the AMPs KR-12, IsCTp, melittin and PEP-1-K were prepared from 64 µg/mL stock solutions to give a final range of 32-0.03 µg/mL in the wells; however this was performed in 1% peptone instead of in MHB since activity was drastically diminished in the latter (not shown).
The population lineages were tested for their susceptibility towards peptidomimetic 1, polymyxin B, gentamicin and ampicillin. Single-culture isolates selected from these populations were additionally tested against peptidomimetic 1, polymyxin B, erythromycin and the five reference AMPs. To estimate the level of cross-resistance to closely related peptidomimetics, MIC determinations were performed for peptidomimetics 2 and 3 (Figure 1) towards selected isolates. […]

Assay [2] concerns isolates from peptidomimetic 1-exposed E. coli ATCC 25922 lineages. As to the method: Continuous selection of resistance was performed for peptidomimetic 1 (Figure 1) and for the clinically relevant natural antimicrobial peptide, polymyxin B. A bacterial suspension of a single colony of E. coli ATCC 25922 was re-inoculated (10 µl) five times in unsupplemented MHB (990 µl). It was then re-inoculated in MHB supplemented with peptidomimetic 1 (ten lineages) or polymyxin B (ten lineages), and after ten re-inoculations at constant peptidomimetic or polymyxin B concentration, the concentrations were doubled. […] Four lineages grown in MHB with MilliQ water were included as control. Re-inoculations were performed twice a day, but were reduced to once a day when growth was slower as assessed by turbidity of the cultures. The total number of passages (supplemented with peptidomimetic/AMP) was 77 times equivalent to approx. 500 generations. For each increase in concentration the lineages were preserved as freezing stocks. Ten colony isolates were randomly selected from each lineage population at 32×MIC and preserved as freezing stocks.
MIC was determined by using the micro-dilution method according to guidelines of the Clinical and Laboratory Standards Institute. Peptidomimetic 1 and erythromycin 1∶2 serial dilutions were prepared from 1024 µg/mL stock solutions to give a final range of 512-0.5 µg/mL in the wells. Ampicillin 1∶2 serial dilutions were prepared from a 256 µg/mL stock solution to give a final range of 128-0.13 µg/mL in the wells. Polymyxin B and gentamicin 1∶2 serial dilutions were prepared from a 64 µg/mL stock solution to give a final range of 32-0.03 µg/mL in the wells.
The population lineages were tested for their susceptibility towards peptidomimetic 1, polymyxin B, gentamicin and ampicillin. Single-culture isolates selected from these populations were additionally tested against peptidomimetic 1, polymyxin B, erythromycin and the five reference AMPs. To estimate the level of cross-resistance to closely related peptidomimetics, MIC determinations were performed for peptidomimetics 2 and 3 (Figure 1) towards selected isolates. The bacterial suspensions were grown overnight in MHB at 37°C for determination of the population MIC, or individual isolates were grown overnight on non-selective BHI agar at 37°C. […] In all experiments, bacterial cells were suspended in 0.9% saline to give a turbidity of 0.13 at OD546 (approximately 1×10^8 CFU/mL) and diluted in MHB pH 7.4 to a final concentration of 5×10^5 CFU/mL in each well. Polypropylene plates (Nunc 442587) were used to minimize peptide binding, and the incubation time was 18–20 hours at 37°C. […] MIC was found in a minimum of two technical (population MIC) or biological (isolate MIC) replicates as the lowest concentration of the AMP or antibiotic where no visible growth was observed.

Where [3] appears, read: the three most resistant isolates from lineage no. 2.

As usually defined, the MIC is the lowest concentration that inhibits growth of the organism. As for `CC(=O)N[C@@H](CCCCN)C(=O)N(CCC(=O)N[C@@H](CCCCN)C(=O)N(CCC(=O)N[C@@H](CCCCN)C(=O)N(CCC(=O)N[C@@H](CCCCN)C(=O)N(CCC(=O)N[C@@H](CCCCN)C(=O)N(CCC(=O)N[C@@H](CCCCN)C(=O)N(CCC(=O)N[C@@H](CCCCN)C(=O)N(CCC(=O)N[C@@H](CCCCN)C(=O)N(CCC(N)=O)[C@@H](C)c1ccccc1)[C@@H](C)c1ccccc1)[C@@H](C)c1ccccc1)[C@@H](C)c1ccccc1)[C@@H](C)c1ccccc1)[C@@H](C)c1ccccc1)[C@@H](C)c1ccccc1)[C@@H](C)c1ccccc1` [peptidomimetic 2], in assay [1], the “wt MIC” value amounted to 64 µg/mL. Further, the MIC in assay [2] (isolates 2–4 and 2–6 (shared values), two biological replicates, mean when results varied) is on record as 512 µg/mL (≈ 206 µM); in assay [2] (isolates 2–7, 2–9 and 2–10 (shared values), two biological replicates, mean when results varied) it was 512 µg/mL (≈ 206 µM); in assay [2] (six of the ten isolates from lineage no. 5 (data point shared with wild type), two biological replicates), 64 µg/mL (≈ 25.7 µM).

As for `CC(=O)N[C@@H](CCCCNC(=N)N)C(=O)N(CCC(=O)N[C@@H](CCCCNC(=N)N)C(=O)N(CCC(=O)N[C@@H](CCCCNC(=N)N)C(=O)N(CCC(=O)N[C@@H](CCCCNC(=N)N)C(=O)N(CCC(=O)N[C@@H](CCCCNC(=N)N)C(=O)N(CCC(=O)N[C@@H](CCCCNC(=N)N)C(=O)N(CCC(N)=O)Cc1ccccc1)Cc1ccccc1)Cc1ccccc1)Cc1ccccc1)Cc1ccccc1)Cc1ccccc1` [peptidomimetic 3], in assay [1], the “wt MIC” value is 4 µg/mL. In addition, in assay [2] (setting [3]), the minimum inhibitory concentration (MIC) worked out at 32 µg/mL (≈ 15.6 µM) and the “MIC levels higher than seen for the wild type strain” value is given as 8 times.
